Tested on: chronic lymphocytic leukemia (CLL) samples classified by expression subtype (Ec-i, EC-m1, EC-m2, EC-m3, EC-m4, EC-o, EC-u1, EC-u2)
Assay: Ex-vivo drug sensitivity (percent viability) of CLL samples compared between expression subtypes (ECs); as to Mean viability in the EC: test concentration or dose not given here; as to Mean viability in the other ECs: test concentration or dose not given here
Assay type: cell-based
Description: An analysis was completed to determine whether the expression clusters (ECs) can be used to predict the resistance and sensitivity of different chronic lymphocytic leukemias to various drugs. […] The expression subtypes were then used with the drug sensitivity data to compare the percent […] of samples in each expression cluster to the percent viability of samples in all other expression clusters.

Compound | Mean viability in the other ECs (all ECs other than EC-i) | Mean viability in the other ECs (all ECs other than EC-m3) | Mean viability in the other ECs (all ECs other than EC-m4) | Mean viability in the other ECs (all ECs other than EC-u1) | Mean viability in the other ECs (all ECs other than EC-u2) | Drug response associated with the EC (expression cluster EC-i) | Mean viability in the EC (expression cluster EC-i) | Drug response associated with the EC (expression cluster EC-m3) | Mean viability in the EC (expression cluster EC-m3) | Drug response associated with the EC (expression cluster EC-m4) | Mean viability in the EC (expression cluster EC-m4) | Drug response associated with the EC (expression cluster EC-u1) | Mean viability in the EC (expression cluster EC-u1) | Drug response associated with the EC (expression cluster EC-u2) | Mean viability in the EC (expression cluster EC-u2) | Mean viability in the other ECs (all ECs other than EC-m1) | Drug response associated with the EC (expression cluster EC-m1) | Mean viability in the EC (expression cluster EC-m1)
Cn1cnc2c(F)c(Nc3ccc(Br)cc3Cl)c(C(=O)NOCCO)cc21 [selumetinib] | 0.92 | 0.93 | 0.92 | 0.94 | 0.94 | Resistant | 0.97 | Resistant | 0.97 | Resistant | 0.97 | Sensitive | 0.91 | Sensitive | 0.79 | – | – | –
C=CC(=O)Nc1cccc(Nc2nc(Nc3ccc(OCCOC)cc3)ncc2F)c1 [spebrutinib] | – | – | 0.95 | 0.98 | 0.96 | – | – | – | – | – | 1.01 | – | 0.92 | – | 0.88 | – | – | –
COc1cc(Nc2ncc(F)c(Nc3ccc4c(n3)NC(=O)C(C)(C)O4)n2)cc(OC)c1OC [tamatinib] | 1.03 | 1.04 | 1.03 | 1.06 | – | Resistant | 1.07 | Resistant | 1.09 | Resistant | 1.09 | Sensitive | 1.00 | – | – | – | – | –
C/C=C(/C)C(=O)O[C@H]1C(C)=C2[C@H]([C@@H]1OC(=O)CCCCCCC)[C@@](C)(OC(C)=O)C[C@H](OC(=O)CCC)[C@@]1(O)[C@H]2OC(=O)[C@@]1(C)O [thapsigargin] | – | – | – | – | – | Sensitive | – | – | – | – | – | – | – | Resistant | – | – | – | –
CC1(C)CCC(CN2CCN(c3ccc(C(=O)NS(=O)(=O)c4ccc(NCC5CCOCC5)c([N+](=O)[O-])c4)c(Oc4cnc5[nH]ccc5c4)c3)CC2)=C(c2ccc(Cl)cc2)C1 [venetoclax] | – | – | – | 0.45 | – | – | – | – | – | – | – | Resistant | 0.54 | – | – | – | – | –
O=C(CCCCCCC(=O)Nc1ccccc1)NO [vorinostat] | – | – | – | – | – | – | – | Sensitive | – | – | – | – | – | – | – | – | – | –
dasatinib | – | 0.72 | 0.70 | 0.79 | 0.75 | – | – | Resistant | 0.87 | Resistant | 0.89 | Sensitive | 0.64 | Sensitive | 0.46 | 0.73 | Resistant | 0.90
fludarabine | – | 0.93 | – | – | – | – | – | Sensitive | 0.82 | – | – | – | – | – | – | – | – | –

Reference: US20230287510A1, “COMPOSITIONS, PANELS, AND METHODS FOR CHARACTERIZING CHRONIC LYMPHOCYTIC LEUKEMIA” (The Broad Institute, Inc., priority 2020, published 2023)
